Source: patent US10918657B2 (priority 2013, dated 2021)

What was measured:
[1] = tested on: giant reticulospinal (RS) neurons; parameters: species or system Petromyzon marinus; conditions: in vivo
[2] = tested on: giant reticulospinal (RS) neurons; parameters: species or system Petromyzon marinus; conditions: in vivo; remark: listed apart in the source
α-synuclein = α-synuclein (Homo sapiens, UniProt P37840); conditions: cited from earlier work
lamprey γ-synuclein = format: biochemical, Petromyzon marinus; conditions: 100 pM synuclein, varying CLR01 concentrations
Procedure: After purification of GST-tagged lamprey γ-synuclein, GST was cleaved off using thrombin (10 U/mg protein; GE Healthcare). Untagged γ-synuclein was then separated from GST and thrombin using Glutathione Sepharose 4B beads and p-aminobenzamidine agarose ([…]/50 U thrombin; Sigma A7155), respectively, and dialyzed into 0.1M PBS, pH 7.4. Aggregation of the purified lamprey γ-synuclein was analyzed using the thioflavin T (ThT) fluorescence assay and electron microscopy as described previously (Roychaudhuri et al. (2014) J. Mol. Biol. 426: 2422-2441), except that 100 pM synuclein and varying CLR01 concentrations were used.

[3] = tested on: Aβ and hyperphosphorylated tau; conditions: mouse, in vivo; cited from earlier work
[4] = tested on: α-synuclein neurotoxicity; conditions: in vivo; cited from earlier work

Compound | survival of the giant RS neurons at the population level (Nissl (+)) [1] | synuclein immunofluorescence intensity in good survivors [2] [AU] | synuclein immunofluorescence intensity in poor survivors [2] [AU] | effect on α-synuclein clearance in vitro (α-synuclein) | effect on α-synuclein self-assembly and toxicity in vitro (α-synuclein) | inhibition of lamprey γ-synuclein aggregation (ThT fluorescence) (lamprey γ-synuclein) | effect on accumulation of Aβ and hyperphosphorylated tau [3] | increase in neuronal survival across the entire RS neuron population [1] [%] | increase of percentage of Nissl (+) "poor survivors" [1] | synuclein immunofluorescence intensity in "good survivors" [2] [AU] | synuclein immunofluorescence intensity in "poor survivors" [2] [AU] | effect on neurodegeneration and survival in zebrafish model [4]
5′-CGC cTg CAT TgC TCT TTg TTT cTC T-3′ [MM MO] | 60.0±8.0 | 26.0±2.4 | 40.7±3.7 | – | – | – | – | – | – | – | – | –
5′-[…]-3′ [Con MO] | 56.7±5.7 | 25.7±1.9 | 42.6±3.5 | – | – | – | – | – | – | – | – | –
O=P(O)(O)Oc1c2c(c(OP(=O)(O)O)c3c1[C@H]1C[C@@H]3c3cc4c(cc31)[C@H]1C[C@@H]4c3ccccc31)[C@H]1C[C@@H]2c2cc3c(cc21)[C@H]1C[C@@H]3c2ccccc21 [CLR01] | – | – | – | facilitates α-synuclein clearance in vitro | inhibits a-synuclein self-assembly and toxicity in vitro | inhibited by CLR01 in a dose-dependent manner | reduce accumulation of Aβ and hyperphosphorylated tau | 22 | more than 4 fold | 5.6±1.3 | 25.7±3.1 | reduces neurodegeneration and improves survival
